In PubChem BioAssay (NCI):
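A five-concentration, 48-hour dose response in 96-well plates underlies each endpoint, interpolated linearly between surrounding concentrations. TGI denotes the concentration required for complete inhibition of growth.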

What was measured:
Assay in all cases: NCI anticancer screen, dose series, 48 h
NCI/ADR-RES ovarian = tested on: NCI/ADR-RES ovarian
K-562 leukemia = tested on: K-562 leukemia
SNB-19 CNS = tested on: SNB-19 CNS
OVCAR-8 ovarian = tested on: OVCAR-8 ovarian

Row | Structure (SMILES) | TGI (NCI/ADR-RES ovarian) [µM] | TGI (K-562 leukemia) [µM] | TGI (SNB-19 CNS) [µM] | TGI (OVCAR-8 ovarian) [µM]
1 | Nc1ncnc2c1ncn2[C@@H]1O[C@H](COC(c2ccccc2)(c2ccccc2)c2ccccc2)[C@@H](OC(=S)Oc2ccccc2)[C@@H]1F | 18.5 | > 100 | 27.7 | 11.9
2 | CCCn1c(=O)c(N2CCN(c3ccccc3)CC2)nc2sc3ccccc3c21 | > 100 | – | > 100 | > 100
3 | CCN(CC)c1nnc(CCCCCCCCc2nnc(N(CC)CC)o2)o1 | > 100 | > 100 | > 100 | > 100
4 | CN1CCN(c2ccc3c(c2)NCC(=O)N3)CC1 | > 100 | > 100 | > 100 | > 100
5 | COc1cc(Oc2nc3ccc(C(F)(F)F)cc3nc2-c2ccccc2)cc(OC)c1OC | > 100 | > 100 | – | > 100
6 | OC(c1cccnc1Cl)c1nc2ccccc2c2ccnc(Cl)c12 (stereo not drawn) | > 100 | > 100 | > 100 | > 100
7 | COc1ccc2c3c1O[C@H](c1ccc(O)cc1)[C@H]3[N+](C)(C)CC2 | > 100 | 88.2 | > 100 | > 100
8 | CN=C(Nc1cccc(C(F)(F)F)c1)SCc1ccc(N=C=S)cc1 | 61.3 | > 100 | 28.1 | 40.7
9 | N#CCCC1(CCC#N)CCCCCCCCC(CCC#N)(CCC#N)C(O)C1O (stereo not drawn) | > 100 | > 100 | > 100 | > 100
10 | C=C1CC[C@@H](C)[C@](C)(CCc2ccoc2)C/C=C\C=C/1C(=O)O | > 100 | > 100 | > 100 | 48.8
11 | CN(C)CCc1c2c(nc3ccccc13)C(=O)c1cccnc1C2=O | 1.03 | > 29.1 | 3.88 | 1.66
12 | Cc1cnc2c(c1C)C(=O)c1ccccc1C2=O | > 100 | > 100 | > 100 | > 100
13 | CC(C)(C)OC(=O)NCCCCC(N)NC(=O)c1ccccc1 (stereo not drawn) | > 100 | > 100 | > 100 | > 100
14 | CO/N=C1/c2sccc2[C@H](NC(=O)C(Cc2ccccc2)NC(=O)OC(C)(C)C)[C@@H]1O (stereo partly drawn) | > 100 | > 100 | > 100 | > 100
15 | Cn1c(=O)n2n(c1=O)C(C)(C13CC4CC(CC(C4)C1)C3)C13CC4CC(CC1C4)CC23 (stereo not drawn) | > 100 | > 100 | > 100 | > 100
16 | COc1cc2c3c([nH]c2c(OC)c1OC)CCN(Cc1ccccc1)C3 | > 100 | 84.2 | > 100 | > 100
17 | Nc1nc2c(C(=O)O)c3ccc([N+](=O)[O-])cc3c(=O)n2c2ccccc12 | 52.4 | > 100 | 89.6 | 34.8
18 | C=CCOc1ccc(C2C(C(=O)OC)C(=O)CC(O)(c3ccccc3)C2C(=O)OC)cc1OC (stereo not drawn) | 66 | > 100 | > 100 | 50.4
19 | C[N+](C)(C)c1ncnc2c1ncn2C1CCCO1 (stereo not drawn) | > 100 | > 100 | > 100 | > 100
20 | CC(=O)OCC1OC(OCCCOP(=S)(OCCC#N)OCC2OC(n3ccc(N)nc3=O)C(OC(=O)c3ccccc3)C2OC(=O)c2ccccc2)C(OC(C)=O)C(OC(C)=O)C1OC(C)=O (stereo not drawn) | > 100 | > 100 | > 100 | > 100
21 | CCN(CC)C1Oc2cc3c(cc2C(c2cccc(OC)c2OC)C1C)OCO3 (stereo not drawn) | – | 14.4 | 71.4 | 22.6
22 | COC(=O)C(Cc1c[nH]c2ccccc12)N=C1Nc2ccncc2S(=O)(=O)N1c1cccc(OC(C)C)c1 (stereo not drawn) | > 100 | > 100 | > 100 | > 100
23 | COc1cc(CNc2nc3ccccc3nc2C(=O)O)cc(OC)c1OC | > 100 | > 100 | – | > 100
24 | COC(=O)Cc1c(-c2c(CC(=O)OC)c3ccccc3n2C2OC(COC(C)=O)C(OC(C)=O)C(OC(C)=O)C2OC(C)=O)[nH]c2ccccc12 (stereo not drawn) | – | – | > 100 | –
25 | CC(C)/C(Cl)=N/OC(=O)Nc1ccc(Cl)c(Cl)c1 | 32 | – | 50.4 | 32.9
26 | CCC1C(c2ccccc2O)c2cc3c(cc2OC1N1CCOCC1)OCO3 (stereo not drawn) | – | 31.5 | 28.6 | 46.2
27 | COC(=O)C1CCC(=O)N1C(c1ccc2c(c1)OCO2)c1cc(OC)c(OC)c(OC)c1 (stereo not drawn) | – | > 100 | > 100 | > 100
28 | NC(Cc1ccc(S(=O)(=O)O)cc1)C(=O)NC(Cc1ccc(S(=O)(=O)O)cc1)C(=O)NC(Cc1ccc(S(=O)(=O)O)cc1)C(=O)NC(Cc1ccc(S(=O)(=O)O)cc1)C(=O)O (stereo not drawn) | > 100 | – | – | > 100
29 | O=C(O)c1ccccc1N=Nc1c(O)c(S(=O)(=O)O)cc2cc(S(=O)(=O)O)ccc12 | – | > 100 | > 100 | > 100
